The record followed here is patent US20220041603A1, “SRC INHIBITOR COMPOUNDS FOR SKELETAL MUSCLE MODULATION, METHODS AND USES THEREOF” (SOCIETE DES PRODUITS NESTLE S.A., priority 2018, published 2022).

The test system of assay [1] is human primary muscle stem cells. Put plainly: Assay for muscle stem cell commitment (Pax7/MyoD immunofluorescence high content screening). The class given is cell-based. The settings on record: Human Skeletal Muscle Myoblasts, donor 8 and donor 4, dose-dependent response, cultures grown 96 hours; for proportion of MyoD+ cells as percent of total cell number (myogenic commitment): MyoD+ = Pax7-/MyoD+ cells; for number of Pax7+ cells (expansion of human primary muscle stem cells): Pax7+ regardless of MyoD expression. As for the experimental part:
The inventors developed a high content screening to test in vitro compounds on human primary adult muscle cells. Human Skeletal Muscle Myoblasts (HSMM) were purchased from Lonza (https://bioscience.lonza.com). These cells were isolated from the upper arm or leg muscle tissue of normal donors and used after the second passage. Several donors were tested to ensure cell viability and purity before selecting the final donors, which are a person (Donor 8) and a person (Donor 4).
The primary screening assay was based on the high content detection of two important myogenic regulatory factors (Pax7 and MyoD) by immunofluorescence. Pax7 and MyoD are the major hallmarks of muscle stem cell stemness and commitment and can be used to monitor muscle stem cell progeny. In particular, Pax7 marks early amplification while MyoD is a later marker for myogenic commitment, and combinations of these markers define the different states of proliferation, differentiation and self-renewal.
Human primary myoblasts were seeded in 384 well plates at a density of 1′000 cells per well in skeletal muscle growth medium (SKM-M, AMSbio). For treatment, compounds were directly added to the myoblast cultures 16 hours after initial plating. All cultures were then grown for 96 hours. Cells were stained for Pax7 and MyoD expression using antibodies directed against Pax7 and MyoD and counterstained with Hoechst 33342 to visualize cell nuclei. […] Pax7+ cells are defined as cells that express Pax7 regardless of MyoD expression. Image acquisition was performed using the ImageXpress (Molecular Devices) platform. Custom module analysis based on Multi-Wavelength Cell Scoring of the MetaXpress software was used for quantification.

Assay [2] has as its system human primary muscle cells. Put plainly: Assay for myogenesis (troponin-T myotube detection). The class given is cell-based. As to conditions: human primary myoblasts, donor 8 and donor 4; dose dependent response; compound treatment 96 hours after differentiation induction. The text has this: The inventors developed a high content screening to test in vitro compounds on human primary adult muscle cells. Human Skeletal Muscle Myoblasts (HSMM) were purchased from Lonza (https://bioscience.lonza.com). These cells were isolated from the upper arm or leg muscle tissue of normal donors and used after the second passage.
This secondary assay focused on the later stage of myogenesis when the muscle cells fuse together and form multinucleated myotubes. This assay was based on the detection of the mature troponin-T protein that is expressed in myotubes. In particular, two measurements were made:
Fusion factor, which is the % of nuclei that are inside the multinucleated myotubes compare to total nuclei and give a readout for muscle cell differentiation.
Myotube area, which is measured based on the Troponin T staining and give a readout on the myotube size and muscle fiber growth.
After one day, the differentiation is induced by a medium change. For treatment, compounds were directly added to the myoblast cultures for 96 hours. Myotubes were stained for TroponinT expression using antibodies directed against TroponinT and counterstained with Hoechst 33342 to visualize cell nuclei. Image acquisition was performed using the ImageXpress (Molecular Devices) platform. Custom module analysis based on Multi-Wavelength Cell Scoring of the MetaXpress software was used for quantification.

Turning to `CC(C)(C)n1nc(-c2cccc3ccccc23)c2c(N)ncnc21` [Napthyl-PP1, 1-(1,1-Dimethylethyl)-3-(1-naphthalenyl)-1H-pyrazolo[3,4-d]pyrimidin-4-amine], in assay [1], the “proportion of MyoD+ cells as percent of total cell number (myogenic commitment)” value was “increase” and the “number of Pax7+ cells (expansion of human primary muscle stem cells)” value (“number of Pax7+ cells” below) is reported as “increase”. In addition, in assay [2], the “myofiber growth (area covered by troponinT-positive myotubes)” value is reported as “enhances” and the “myogenic differentiation (Fusion Factor, percent nuclei within troponinT-positive myotubes)” value is listed as “enhances”.

As to `Cc1ccc(-c2nn(C(C)(C)C)c3ncnc(N)c23)cc1` [PP1, 1-(1,1-Dimethylethyl)-3-(4-methylphenyl)-1H-pyrazolo[3,4-d]pyrimidin-4-amine], in assay [1], the “proportion of MyoD+ cells as percent of total cell number (myogenic commitment)” value is given as “increase” and the “number of Pax7+ cells” value is “increase”. Also, in assay [2], the “myogenic differentiation (Fusion Factor, percent nuclei within troponinT-positive myotubes)” value is reported as “enhances”.

Turning to `CC(C)(C)n1nc(-c2ccc(Cl)cc2)c2c(N)ncnc21` [PP2, 3-(4-Chlorophenyl)-1-(1,1-dimethylethyl)-1H-pyrazolo[3,4-d]pyrimidin-4-amine], in assay [1], the “proportion of MyoD+ cells as percent of total cell number (myogenic commitment)” value was “increase” and the “number of Pax7+ cells” value is on record as “increase”. The “myogenic differentiation (Fusion Factor, percent nuclei within troponinT-positive myotubes)” value in assay [2] was “enhances”.
